Laboratory results reported in patent publication US20260191968A1, “PROTAC DEGRADERS OF MLLT1 AND/OR MLLT3” (DARK BLUE THERAPEUTICS LTD, priority 2024, published 2026).

Target: T1, MLLT1 (Homo sapiens, UniProt Q03111)
T1 construct: host or cells: MV4-11
T1 sequence (Q03111 1-559): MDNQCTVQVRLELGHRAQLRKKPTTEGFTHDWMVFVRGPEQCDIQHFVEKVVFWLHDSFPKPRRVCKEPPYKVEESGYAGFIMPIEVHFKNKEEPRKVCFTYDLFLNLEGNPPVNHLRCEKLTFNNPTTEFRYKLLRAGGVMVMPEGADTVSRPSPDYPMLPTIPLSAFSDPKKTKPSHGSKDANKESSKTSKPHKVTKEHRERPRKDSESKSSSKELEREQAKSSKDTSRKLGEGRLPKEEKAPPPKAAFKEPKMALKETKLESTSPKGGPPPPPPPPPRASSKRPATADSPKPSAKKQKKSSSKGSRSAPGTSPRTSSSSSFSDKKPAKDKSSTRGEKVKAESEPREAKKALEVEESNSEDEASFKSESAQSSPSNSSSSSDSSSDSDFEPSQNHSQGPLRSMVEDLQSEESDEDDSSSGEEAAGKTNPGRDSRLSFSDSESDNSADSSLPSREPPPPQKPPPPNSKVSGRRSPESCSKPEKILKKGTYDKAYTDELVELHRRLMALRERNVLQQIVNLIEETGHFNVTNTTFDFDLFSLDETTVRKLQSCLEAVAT
Assay: MLLT1 degradation assay in MV4-11 cells (JESS chemiluminescent detection), three concentrations, 24 h
Assay type: cell-based
Conditions: with respect to DMSO control
Experimental: MLLT1 degradation efficacy of compounds were tested in an automated chemiluminescent detection system (JESS, Cat #004-650). […] 10 mM DMSO stocks were prepared, and cells were treated with three concentrations of test compounds viz. 1000, 100 and 10 nM at a final DMSO concentration of 0.1% and incubated for 24 h at 37° C., 5% CO2. […] Post run, data were analysed using “Compass for SW” software for chemiluminescent detection. The peak area for each band was used for the calculation of MLLT1 degradation with respect to DMSO control. Data is shown as “MLLT1% degradation”.

| SMILES | MLLT1% Degradation @ 0.1 μM | MLLT1% Degradation @ 0.01 μM | MLLT1% Degradation @ 1 μM |
| --- | --- | --- | --- |
| CCN1CCC[C@@H]1c1cc2cnc(NC(=O)c3ccc(CCCCC#Cc4cccc5c4CN(C4CCC(=O)NC4=O)C5=O)nc3)cc2[nH]1 (stereo partly drawn) [Example 74, 6-(6-(2-(2,6-dioxopiperidin-3-yl)-1-oxoisoindolin-4-yl)hex-5-yn-1-yl)-N-(2-((R)-1-ethylpyrrolidin-2-yl)-1H-pyrrolo[3,2-c]pyridin-6-yl) nicotinamide] | B (Category B: 50% ≤ B < 75% degradation) | B (Category B: 50% ≤ B < 75% degradation) | B (Category B: 50% ≤ B < 75% degradation) |
| CN1CCC[C@@H]1c1cc2cnc(NC(=O)CCCCCCCCNc3cccc4c3C(=O)N(C3CCC(=O)NC3=O)C4=O)cc2[nH]1 (stereo partly drawn) [Example 30, 9-{[2-(2,6-dioxopiperidin-3-yl)-1,3-dioxoisoindol-4-yl]amino}-N-{2-[(2R)-1-methylpyrrolidin-2-yl]-1H-pyrrolo[3,2-c]pyridin-6-yl}nonanamide] | B (Category B: 50% ≤ B < 75% degradation) | C (Category C: 25% ≤ C < 50% degradation) | A (Category A: A ≥ 75% degradation) |
| CN1CCC[C@@H]1c1cc2cnc(NC(=O)c3ccc(CCCC#Cc4ccc(C(=O)N[C@H]5CCC(=O)NC5=O)nc4)cc3)cc2[nH]1 [Example 11, N—((S)-2,6-dioxopiperidin-3-yl)-5-(5-(4-((2-((R)-1-methylpyrrolidin-2-yl)-1H-pyrrolo[3,2-c]pyridin-6-yl)carbamoyl)phenyl)pent-1-yn-1-yl)picolinamide] | C (Category C: 25% ≤ C < 50% degradation) | D (Category D: D < 25% degradation) | B (Category B: 50% ≤ B < 75% degradation) |
| Cc1ncsc1-c1ccc(CNC(=O)[C@@H]2C[C@@H](O)CN2C(=O)[C@@H](NC(=O)CCCCCCCCCCNC(=O)c2ccc(C(=O)Nc3cc4[nH]c([C@H]5CCCN5C)cc4cn3)cc2)C(C)(C)C)cc1 [Example 69, (2S,4R)-1-[(2S)-3,3-dimethyl-2-(11-{[4-({2-[(2R)-1-methylpyrrolidin-2-yl]-1H-pyrrolo[3,2-c]pyridin-6-yl}carbamoyl)phenyl]formamido}undecanamido)butanoyl]-4-hydroxy-N-{[4-(4-methyl-1,3-thiazol-5-yl)phenyl]methyl}pyrrolidine-2-carboxamide] | C (Category C: 25% ≤ C < 50% degradation) | C (Category C: 25% ≤ C < 50% degradation) | C (Category C: 25% ≤ C < 50% degradation) |
| CN1CCC[C@@H]1c1cc2cnc(NC(=O)c3ccc(OCC#Cc4cccc5c4CN(C4CCC(=O)NC4=O)C5=O)c(Cl)c3)cc2[nH]1 (stereo partly drawn) [Example 23, 3-chloro-4-((3-(2-(2,6-dioxopiperidin-3-yl)-1-oxoisoindolin-4-yl)prop-2-yn-1-yl)oxy)-N-(2-((R)-1-methylpyrrolidin-2-yl)-1H-pyrrolo[3,2-c]pyridin-6-yl)benzamide] | C (Category C: 25% ≤ C < 50% degradation) | C (Category C: 25% ≤ C < 50% degradation) | C (Category C: 25% ≤ C < 50% degradation) |
| CN1CCC[C@@H]1c1cc2cnc(NC(=O)c3ccc(OCC4CCN(c5cccc6c5CN(C5CCC(=O)NC5=O)C6=O)CC4)cc3F)cc2[nH]1 (stereo partly drawn) [Example 214, 4-((1-(2-(2,6-dioxopiperidin-3-yl)-1-oxoisoindolin-4-yl)piperidin-4-yl)methoxy)-2-fluoro-N-(2-((R)-1-methylpyrrolidin-2-yl)-1H-pyrrolo[3,2-c]pyridin-6-yl)benzamide] | A (Category A: A ≥ 75% degradation) | A (Category A: A ≥ 75% degradation) | A (Category A: A ≥ 75% degradation) |
| CN1CCC[C@@H]1c1cc2cnc(NC(=O)c3ccc(OCCC4CCN(c5cccc6c5CN(C5CCC(=O)NC5=O)C6=O)CC4)cc3Cl)cc2[nH]1 (stereo partly drawn) [Example 205, 2-chloro-4-(2-(1-(2-(2,6-dioxopiperidin-3-yl)-1-oxoisoindolin-4-yl)piperidin-4-yl)ethoxy)-N-(2-((R)-1-methylpyrrolidin-2-yl)-1H-pyrrolo[3,2-c]pyridin-6-yl)benzamide] | A (Category A: A ≥ 75% degradation) | B (Category B: 50% ≤ B < 75% degradation) | A (Category A: A ≥ 75% degradation) |
| CN1CCC[C@@H]1c1cc2cnc(NC(=O)c3ccc(OCCC4CCN(c5cccc6c5CN(C5CCC(=O)NC5=O)C6=O)CC4)cc3)cc2[nH]1 (stereo in doubt) [Example 81, 4-(2-(1-(2-((rel-R)-2,6-dioxopiperidin-3-yl)-1-oxoisoindolin-4-yl)piperidin-4-yl)ethoxy)-N-(2-((R)-1-methylpyrrolidin-2-yl)-1H-pyrrolo[3,2-c]pyridin-6-yl)benzamide] | A (Category A: A ≥ 75% degradation) | A (Category A: A ≥ 75% degradation) | A (Category A: A ≥ 75% degradation) |

Further lines, with some results ahead:

| MLLT1% Degradation @ 0.1 μM | SMILES | MLLT1% Degradation @ 0.01 μM | MLLT1% Degradation @ 1 μM |
| --- | --- | --- | --- |
| D (Category D: D < 25% degradation) | CN1CCC[C@@H]1c1cc2cnc(NC(=O)c3cccc(OCCCCCCCC#Cc4cccc5c4C(=O)N(C4CCC(=O)NC4=O)C5=O)c3)cc2[nH]1 (stereo partly drawn) [Example 26, 3-((9-(2-(2,6-dioxopiperidin-3-yl)-1,3-dioxoisoindolin-4-yl)non-8-yn-1-yl)oxy)-N-(2-((R)-1-methylpyrrolidin-2-yl)-1H-pyrrolo[3,2-c]pyridin-6-yl)benzamide] | D (Category D: D < 25% degradation) | C (Category C: 25% ≤ C < 50% degradation) |
| D (Category D: D < 25% degradation) | CN1CCC[C@@H]1c1cc2cnc(NC(=O)c3ccc(N4CCC(OCC5CCN(c6ccc7c(c6)CN(C6CCC(=O)NC6=O)C7=O)CC5)CC4)nc3)cc2[nH]1 (stereo partly drawn) [Example 228, 6-(4-((1-(2-(2,6-dioxopiperidin-3-yl)-1-oxoisoindolin-5-yl)piperidin-4-yl)methoxy)piperidin-1-yl)-N-(2-((R)-1-methylpyrrolidin-2-yl)-1H-pyrrolo[3,2-c]pyridin-6-yl)nicotinamide] | C (Category C: 25% ≤ C < 50% degradation) | D (Category D: D < 25% degradation) |
| A (Category A: A ≥ 75% degradation) | CN1CCC[C@@H]1c1[nH]c2cc(NC(=O)c3ccc(CCCC4CCN(c5cccc6c5CN([C@H]5CCC(=O)NC5=O)C6=O)CC4)cc3)ncc2c1Cl [Example 233, N-(3-chloro-2-((R)-1-methylpyrrolidin-2-yl)-1H-pyrrolo[3,2-c]pyridin-6-yl)-4-(3-(1-(2-((S)-2,6-dioxopiperidin-3-yl)-1-oxoisoindolin-4-yl)piperidin-4-yl)propyl)benzamide] | A (Category A: A ≥ 75% degradation) | A (Category A: A ≥ 75% degradation) |
| D (Category D: D < 25% degradation) | CN1CCC[C@@H]1c1cc2cnc(NC(=O)c3ccc(CCC#Cc4cccc5c4CN(C4CCC(=O)NC4=O)C5=O)cn3)cc2[nH]1 (stereo partly drawn) [Example 49, 5-(4-(2-(2,6-dioxopiperidin-3-yl)-1-oxoisoindolin-4-yl)but-3-yn-1-yl)-N-(2-((R)-1-methylpyrrolidin-2-yl)-1H-pyrrolo[3,2-c]pyridin-6-yl)picolinamide] | D (Category D: D < 25% degradation) | C (Category C: 25% ≤ C < 50% degradation) |
